Publication PMC12254266, “Multicolored sequential resonance energy transfer for detection of simultaneous ligand binding at G protein-coupled receptors” (Nature Communications, 2025)
Several values for one entry are separate records, joined by “and”; a condition that tells them apart may be missing. Equal entries are not always repeated.

Columns and labels:
[1] = target: T1, FFA1-Nluc (Homo sapiens, UniProt O14842); experiment: DISCo-BRET (endpoint, spectra scan, kinetics) with TUG-2591 and TUG-2597 at C terminal Nluc tagged FFA1; type: binding; parameters: expressed in transfected cells; conditions: for Specific BRET (690/450): Sup Fig 3Bi
T1 sequence (O14842 whole entry): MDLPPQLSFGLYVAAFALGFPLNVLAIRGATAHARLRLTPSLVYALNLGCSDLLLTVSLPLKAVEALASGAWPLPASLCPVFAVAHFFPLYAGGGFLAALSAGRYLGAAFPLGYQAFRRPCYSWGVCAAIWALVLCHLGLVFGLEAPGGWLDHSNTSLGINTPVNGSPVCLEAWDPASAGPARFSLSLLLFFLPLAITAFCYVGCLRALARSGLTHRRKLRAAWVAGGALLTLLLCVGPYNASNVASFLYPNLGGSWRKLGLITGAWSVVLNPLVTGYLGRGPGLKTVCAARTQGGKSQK
Method in brief: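 After Nano-Glo substrate (1:800 final), ligand-treated FFA1-Nluc or Nluc-FFA1 cells, doxycycline-induced (100 ng/mL), were read. Kinetic association/dissociation runs were at 25 °C; endpoint and 440–740 nm spectra came after 5 min at 37 °C. Non-specific signal came from competing ligands at high concentration.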

[2] = target: T1, FFA1-Nluc; experiment: NanoBRET binding (saturation, kinetics) at C terminal Nluc tagged FFA1; parameters: expressed in transfected cells
Procedure: Nluc-FFA1 or FFA1-Nluc Flp-In T-REx 293 cells were plated at 50,000 cells per well in poly-D-lysine coated white 96-well plates. Cells were cultured for 24 h in the plate before medium was replaced with medium containing 100 ng/mL of doxycycline to induce receptor expression. After culturing for a further 24 h, medium was removed, cells were washed with HBSS and incubated in HBSS for 30 min. To start the assay, NanoGlo substrate (Promega, N1110) was added to the cells at a 1:800 final dilution and incubated for 10 min at 37 °C. For endpoint assays, including both saturation and competition binding, test ligands were then added, including both fluorescent and unlabelled competing ligands as indicated, and plates incubated for a further 5 min at 37 °C. NanoBRET was then quantified in a CLARIOstar microplate reader (BMG Labtech) by measuring luminescent emission with the monochrometer set for the Nluc donor at 450–60 nm, and acceptor luminescent emission 540–60 nm (NBD), 600–80 nm (Cy3.5) or 690–100 nm (SulfoCy5), depending on which fluorophore was being tested. The acceptor/donor BRET ratio was then taken as a measure of fluorophore binding. For kinetic on then off NanoBRET experiments plates were washed the same way and substrate was added to the same concentration. However, 10 min after substrate was added plates were inserted into the CLARIOstar microplate reader set to 25 °C to take repeated measurements of luminescent emission for both the donor and the acceptor fluorophore being used. After 5 min of background measurements, the indicated concentration of fluorescent ligand was added using the plate reader injector and luminescent emission was monitored for ~10 min before the reader was paused to manually add a high concentration of appropriate competing ligand to initiate dissociation. The plate was returned to the reader and luminescence measurements were continued for a further 30 min to monitor dissociation of the fluorescent ligand. For kinetic experiments using multiple concentrations of fluorescent ligand, cells were placed in the plate reader immediately after the addition of Nano-Glo substrate and luminescent measurements were taken. After 5 min, the reader was paused to add the indicated concentrations of fluorescent ligand, before measurements were continued. To set non-specific binding for kinetic experiments, the indicated competing ligand was added 5 min before the addition of the fluorescent ligand.

[3] = Aqueous solubility; type: physicochemical; conditions: in words, relative to previous analogues
[4] = TUG-2597 […] first, then increasing TUG-2591 (Fig. 6H)
[5] = FFA1-Nluc, 95% confidence interval in parentheses, read-out: Kd, saturation BRET binding
[6] = TUG-2591 100 nM + TUG-2597 […], displacing ligand T360 10 μM
[7] = TUG-2597 […] after TUG-2591 pre-treatment (Sup. Fig. 10A)
[8] = based on the value calculated in Supplementary Table 4
[9] = tracers 1.0 μΜ / 3.16 μΜ, displacing ligand T360 (30 μM)

Cc1cc(OCCCNC(=O)CCCN2\C(=C/C=C/C=C/C3=[N+](C)c4ccc(S(=O)(=O)[O-])cc4C3(C)C)C(C)(C)c3ccccc32)ccc1-c1cccc(COc2ccc(CCC(=O)O)c(F)c2)c1 [TUG-2591]
Specific BRET (540/450) ([1]; 10 nM TUG-2591, + TUG-2597): 0.2063 and 0.1967 and 0.1514 and 0.1434 and 0.1849 and 0.1798 | Kd ([1]; FFA1-Nluc, […] TUG-2597, read-out: Kd, DISCo-BRET saturation SulfoCy5/NBD (Sup Fig 3Biii)): 64 nM | Kd ([1]; FFA1-Nluc, […] TUG-2597, read-out: Kd, DISCo-BRET saturation SulfoCy5/NBD (Sup Fig 3Ciii)): 140 nM | Kd ([1]; FFA1-Nluc, […] TUG-2597, read-out: Kd, DISCo-BRET saturation SulfoCy5/Nluc (Sup Fig 3Bi)): 57 nM | Kd ([1]; FFA1-Nluc, […] TUG-2597, read-out: Kd, DISCo-BRET saturation SulfoCy5/Nluc (Sup Fig 3Ci)): 81 nM | Specific BRET (690/450) ([1]; TUG-2591 56 nM, with TUG-2597): 0.0527 and 0.0499 and 0.0741 and 0.0890 and 0.0785 and 0.0761 and 0.0666 and 0.0608 | Specific BRET (690/450) ([1]; TUG-2591 100 nM, with TUG-2597): 0.0715 and 0.0673 and 0.0821 and 0.0713 and 0.0718 and 0.0721 and 0.1131 and 0.1106 | Specific BRET (540/450) ([1]; Sup Fig 3Bii, TUG-2591 10 nM, with TUG-2597 + TUG-905): 0.2427 and 0.2316 and 0.2211 and 0.2363 and 0.1842 and 0.1961 | Specific BRET (540/450) ([1]; Sup Fig 3Bii, TUG-2591 56 nM, with TUG-2597): 0.1505 and 0.1512 and 0.1284 and 0.1402 and 0.0985 and 0.0926 | Specific BRET (540/450) ([1]; Sup Fig 3Bii, TUG-2591 56 nM, with TUG-2597 + TUG-905): 0.1690 and 0.2045 and 0.2352 and 0.2122 and 0.1905 and 0.1776 | Specific BRET (540/450) ([1]; Sup Fig 3Bii, TUG-2591 100 nM, with TUG-2597): 0.1528 and 0.1591 and 0.1221 and 0.0973 and 0.0962 and 0.0870 | Specific BRET (540/450) ([1]; Sup Fig 3Bii, TUG-2591 100 nM, with TUG-2597 + TUG-905): 0.1931 and 0.1764 and 0.2349 and 0.2150 and 0.1675 and 0.1714 | Specific BRET (690/540) ([1]; Sup Fig 3Biii, TUG-2591 56 nM, with TUG-2597): 0.0349 and 0.0333 and 0.0476 and 0.0572 and 0.0548 and 0.0534 and 0.0437 and 0.0392 | Specific BRET (690/540) ([1]; Sup Fig 3Biii, TUG-2591 100 nM, with TUG-2597): 0.0480 and 0.0458 and 0.0524 and 0.0450 and 0.0542 and 0.0749 and 0.0751 | kOff DISCo-BRET SulfoCy5/NBD ([1]; TUG-2591 100 nM + TUG-2597 […], displacing ligand TUG-905 10 μM): 0.0006 s⁻¹ | kOn DISCo-BRET Single Concentration ([1]; TUG-2591 100 nM added after TUG-2597 […]): 20000 M⁻¹ s⁻¹ | Kd ([1]; TUG-2591 added after TUG-2597, read-out: Kd DISCo-BRET Single Concentration (kinetic)): 91 nM | kOff DISCo-BRET Multiple Concentration [1, 4]: 0.00183 s⁻¹ | kOn DISCo-BRET Multiple Concentration [1, 4]: 8333.33 M⁻¹ s⁻¹ | Kd ([1]; TUG-2597 […] first, then increasing TUG-2591 (Fig. 6H), read-out: Kd DISCo-BRET Multiple Concentration (kinetic)): 220 nM | Specific BRET (690/540) ([1]; [TUG-2591] 100 nM, with TUG-2597): 0.0559 and 0.0537 and 0.05545 and 0.05225 and 0.03465 and 0.04165 | kOff DISCo-BRET Single Concentration ([1]; based on the value calculated in the multiple ligand experiment in Fig. 6H): 0.00183 s⁻¹ | Kd ([1]; in presence of […] TUG-2597, either construct, read-out: Kd, DISCo-BRET saturation (area under SulfoCy5 / NBD peaks)): 50 to 100 nM | kOff DISCo-BRET SulfoCy5/NBD ([1]; tracers 1.0 μΜ / 3.16 μΜ, displacing ligand TUG-905 (30 μΜ)): 0.000533 s⁻¹ | Kd [2, 5]: 23 nM | BMax, saturation BRET binding ([2]; FFA1-Nluc, specific BRET, 95% confidence interval in parentheses): 0.035 (0.032−0.038)

COc1ccc(C(=O)N(CC(C)(C)CNc2ccc([N+](=O)[O-])c3nonc23)c2cccc(C)n2)c(N2CCC(COc3cccc(C(CC(=O)O)C4CC4)c3)CC2)c1.O=C(O)C(F)(F)F (stereo not shown) [TUG-2597]
aqueous solubility [3]: improved aqueous solubility | Specific BRET (540/450) ([1]; Sup Fig 3Bii, TUG-2591 0 nM, TUG-2597 + TUG-905): 0.2651 and 0.2434 and 0.2485 and 0.2471 and 0.2191 and 0.2108 | Specific BRET (540/450) ([1]; Sup Fig 3Bii, TUG-2591 0 nM, TUG-2597 alone): 0.1932 and 0.1879 and 0.1690 and 0.1361 and 0.1137 and 0.1169 | kOff DISCo-BRET NBD/Nluc [1, 6]: 0.004 s⁻¹ | kOff DISCo-BRET SulfoCy5/NBD [1, 6]: 0.0045 s⁻¹ | kOff DISCo-BRET NBD/Nluc ([1]; TUG-2591 100 nM + TUG-2597 […], displacing ligands TUG-905 and T360 10 μM each): 0.00367 s⁻¹ | kOn DISCo-BRET NBD/Nluc [1, 7]: 31666.67 M⁻¹ s⁻¹ | kOn DISCo-BRET SulfoCy5/NBD [1, 7]: 28333.33 M⁻¹ s⁻¹ | Kd ([1]; TUG-2597 after TUG-2591 pre-treatment, read-out: Kd DISCo-BRET NBD/Nluc (kinetic)): 130 nM | Kd ([1]; TUG-2597 after TUG-2591 pre-treatment, read-out: Kd DISCo-BRET SulfoCy5/NBD (kinetic)): 140 nM | kOff DISCo-BRET NBD/Nluc [1, 8]: 0.004 s⁻¹ | kOff DISCo-BRET SulfoCy5/NBD [1, 8]: 0.004 s⁻¹ | off rate from DISCo-BRET binding studies ([1]; range depending on which tracer concentration was used (author rebuttal)): 0.18-0.27 | kOff DISCo-BRET NBD/Nluc [1, 9]: 0.004 s⁻¹ | kOff DISCo-BRET SulfoCy5/NBD [1, 9]: 0.003 s⁻¹ | kOff DISCo-BRET NBD/Nluc ([1]; tracers 1.0 μΜ / 3.16 μΜ, displacing ligands TUG-905 and T360 (30 μM each)): 0.00667 s⁻¹ | Specific BRET ([2]; FFA1-Nluc (Fig 1E), percentage of the maximal signal, [TUG-2597] 550 nM): 49.872% and 58.619% and 50.406% and 58.181% and 46.189% | Kd [2, 5]: 380 nM | Specific BRET (540/450) Ratio ([2]; FFA1-Nluc, [TUG-2597] 550 nM): 0.0328 and 0.0282 | kOff Nano-BRET Allosterism, FFA1-Nluc ([2]; TUG-2597 (1 μM) in the presence of TUG-905 (30μM), 95% CI in parentheses): 0.24 (0.23-0.25) min-1 | kOff Nano-BRET Single Concentration [2, 8]: 0.00633 s⁻¹ | kOn Nano-BRET Single Concentration ([2]; no pre-treatment, NBD/Nluc (Sup. Fig. 10A)): 23333.33 M⁻¹ s⁻¹ | Kd ([2]; no pre-treatment, read-out: Kd Nano-BRET Single Concentration (kinetic)): 270 nM
